# ChEMBL document CHEMBL3992492, “Sulfoximines from a Medicinal Chemist's Perspective: Physicochemical and in vitro Parameters Relevant for Drug Discovery” (Eur J Med Chem, 2017)
# Legend:
# in vitro [1] = conditions: human, liver microsomes
# physchem [2] = conditions: n-octanol/aqueous mixture, pH 7.4
# in vitro [3] = conditions: PAMPA, pH 7.4
# Description: Apparent permeability of the compound at pH 7.4 by PAMPA
# in vitro [4] = conditions: human, liver microsomes; remark: listed apart in the source
# Description: Half life in human liver microsomes at 1 uM in presence of NADPH by LC-MS/MS method
# physchem [5] = conditions: n-octanol/aqueous mixture, pH 2
# physchem [6] = conditions: acetonitrile/water mixture
# Description: Solubility of the compound in acetonitrile/water mixture at 10 mM measured after 24 by HPLC-UV method
# physchem [7] = conditions: aqueous/organic mixture, pH 2
# physchem [8] = conditions: aqueous
# [9] = Drug degradation in pH <1 HCl after 7 days by HPLC method
# physchem [10] = conditions: octanol/water, pH 10
# [11] = Drug degradation in pH >10 NH3 after 7 days by HPLC method
# [12] = Dissociation constant, pKb of the compound in aqueous/organic mixture at pH 2 to 12 by potentiometric titration method; format: physicochemical; conditions: buffer
# [13] = octanol/water, pH 7.4
# [14] = Apparent partition coefficient, log P of the compound in n-octanol/aqueous mixture at pH 12 by potentiometric titration method; format: physicochemical; conditions: octanol/water
# [15] = Dissociation constant, pKb of the compound in aqueous phase at pH 2 to 12 by potentiometric titration method; format: physicochemical; conditions: buffer
# [16] = Dissociation constant, pKa of the compound; format: physicochemical
# [17] = Apparent partition coefficient, log P of the compound in n-octanol/aqueous mixture at pH 3 by potentiometric titration method; format: physicochemical
Structure (SMILES),hepatic extraction ratio at 1 µM (in vitro [1]),logD (physchem [2]),Papp (in vitro [3]) [nm/s],half-life at 1 µM (in vitro [4]) [h],logD (physchem [5]),solubility at 10000 µM (physchem [6]) [mg/mL],pKa (physchem [7]),solubility thermodynamic (physchem [8]) [mg/mL],Drug degradation [9] [%],logP (physchem [10]),Drug degradation [11] [%],pKb [12],logD [13],logP [14],pKb [15],pKa [16],logD [17]
CS(=O)(=O)NC(=O)c1ccc(C(F)(F)F)cc1,< 0.23,-1,0.1,> 2.17,1.7,> 0.062,3.2,> 20,–,–,–,–,–,–,–,–,–
CS(=O)(=O)NC(=O)Nc1ccc(C(F)(F)F)cc1,< 0.23,-0.3,0.4,> 2.17,1.9,0.055,4.2,11.1,–,–,–,–,–,–,–,–,–
O=S1(c2ccc(C(F)(F)F)cc2)=NCCCC1 (configuration not stated),< 0.23,–,92,> 2.17,–,> 0.059,–,4.7,< 10,0.2,34,3.8,–,–,–,–,–
CS(C)(=O)=N[C@H]1CC[C@@H](C(F)(F)F)CC1,< 0.23,–,78,> 2.17,–,–,–,0.3,–,–,–,4.2,2.4,2.4,–,–,–
CS(C)(=N)=Nc1ccc(C(F)(F)F)cc1,< 0.23,–,56,> 2.17,–,> 0.051,–,8.4,–,-0.5,–,4,1.8,1.8,–,–,–
CNS(=N)(=O)c1ccc(C(F)(F)F)cc1 (configuration not stated),0.45,–,57,0.783,–,–,–,6.9,10,-0.5,< 10,2.4,0.9,0.9,–,–,–
N=S1(=Nc2ccc(C(F)(F)F)cc2)CCCCC1,0.25,–,73,1.83,–,0.044,–,0.5,13,1.3,< 10,4,–,–,–,–,–
O=S1(=O)CCNCC1,–,–,–,–,–,–,–,–,–,–,–,–,–,–,5.4,–,–
NS(=O)(=O)c1ccc(C(F)(F)F)cc1,< 0.23,1.4,41,> 2.17,1.4,> 0.048,9.4,0.8,–,–,–,–,–,–,–,–,–
CS(=N)(=O)c1ccc(Cl)cc1 (configuration not stated),–,–,–,–,–,–,–,–,–,–,–,–,–,–,–,2.3,–
CS(=O)(=O)Nc1ccc(C(F)(F)F)cc1,< 0.23,1.9,51,> 2.17,–,0.047,8,0.6,–,–,–,–,–,–,–,–,2
CS(=N)(=O)c1ccc(C(F)(F)F)cc1 (configuration not stated),< 0.23,–,69,> 2.17,–,> 0.05,–,9.1,–,–,–,2.5,2,2,–,–,–
CS(=N)(=O)c1ccccc1 (configuration not stated),–,–,–,–,–,–,–,–,–,–,–,–,–,–,–,2.7,–
CNS(=O)(=O)c1ccc(C(F)(F)F)cc1,< 0.23,2.3,63,> 2.17,2.3,> 0.049,10.7,0.9,–,–,–,–,–,–,–,–,–
O=S1(=N[C@H]2CC[C@@H](C(F)(F)F)CC2)CCCCC1,0.43,–,100,0.867,–,–,–,< 0.05,–,–,–,5,3.5,3.5,–,–,–
